Measured values published in patent US20230058623A1, “NOVEL HETEROARYL-TRIAZOLE COMPOUNDS AS PESTICIDES” (Bayer Aktiengesellschaft, priority 2019, published 2023).

How the values were obtained:
Type in all cases: in vivo
[1] = test system: green peach aphid (Myzus persicae); experiment: Myzus persicae oral test; settings: 120 h, read-out: activity (mortality)
How it was run: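 Readout: % mortality at day 5, where 100% = all aphids dead and 0% = none dead. Feeding via parafilm membrane over compound in IPL41 medium (33%+15% sugar); mixed-age population. Stock in acetone (1:100 w/w), water-diluted.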

[2] = test system: Rhipicephalus (Boophilus) microplus larvae (strain Parkhurst, resistant against synthetic pyrethroids); experiment: Rhipicephalus (Boophilus) microplus in-vitro contact test, larval cattle tick; settings: after 48 hours, read-out: activity (efficacy: larvae dead or moribund); for pest or weed control at 1 µg/cm2, 100 g/ha: application rate 1 μg/cm^2 (=100 g/ha); for pest or weed control at 5 µg/cm2, 500 g/ha: application rate 5 μg/cm^2 (=500 g/ha)
How it was run: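 Pyrethroid-resistant Parkhurst larvae, 20–50 per tube, were kept 48 h at 27 °C and 85% relative humidity in glass tubes whose inner walls carried a dried acetone film of compound (900 ppm giving 5 μg/cm^2). Dead or moribund larvae, judged by loss of negative geotactic behavior, set percent efficacy.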

[3] = test system: adult brown dog ticks (Rhipicephalus sanguineus); experiment: Rhipicephalus sanguineus in-vitro contact test, adult brown dog ticks; settings: application rate 5 μg/cm^2 (=500 g/ha), after 48 hours, read-out: activity (efficacy: ticks dead or moribund)
Procedure: Rhipicephalus sanguineus—In-Vitro Contact Tests with Adult Brown Dog Ticks
(§1) 9 mg compound is solved in 1 mL acetone and diluted with acetone to the desired concentration. 250 μL of the test solution is filled in 25 mL glass test tubes and homogeneously distributed on the inner walls by rotation and tilting on a shaking device (2 h at 30 rpm). With a compound concentration of 900 ppm, an inner surface of 44.7 cm^2 and a homogeneous distribution, a dose of 5 μg/cm^2 is achieved.
After the solvent has evaporated, each test tube is filled with 5-10 adult brown dog ticks (Rhipicephalus sanguineus), closed with a perforated lid and incubated in a lying position at room temperature and relative humidity. After 48 hours efficacy is determined. The ticks are patted on the ground of the tubes and are incubated on a heating plate at 45-50° C. for at most 5 minutes. Immotile or uncoordinated moving ticks, which are not able to escape the heat by climbing upwards, are marked as dead or moribund.
An efficacy of 100% means all ticks are dead or moribund; 0% means no ticks are dead or moribund.

[4] = test system: fall armyworm larvae (Spodoptera frugiperda); experiment: Spodoptera frugiperda spray test; settings: 168 h, application rate 100 g/ha, after 7 days, maize leaf sections
How it was run: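 Read-out: % larval mortality at day 7, where 100% means all killed and 0% none killed. Compound diluted in water with 1000 ppm emulsifier, sprayed onto Zea mays leaf sections; dried sections then infested with S. frugiperda larvae.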

[5] = test system: adult engorged female ticks (Rhipicephalus microplus); experiment: Rhipicephalus (Boophilus) microplus injection test; settings: 168 h, application rate 4 μg/tick, egg deposition after 7 days, read-out: activity (efficacy: infertile eggs)
Procedure: Rhipicephalus (Boophilus) microplus—Injection Test
Solvent: dimethyl sulfoxide
To produce a suitable preparation of active compound, 10 mg of active compound are dissolved in 0.5 mL solvent, and the concentrate is diluted with solvent to the desired concentration.
Five adult engorged female ticks (Rhipicephalus microplus) are injected with 1 μL compound solution into the abdomen. The ticks are transferred into replica plates and incubated in a climate chamber.
After 7 days egg deposition of fertile eggs is monitored. Eggs where fertility is not visible are stored in a climate chamber till hatching after about 42 days. An efficacy of 100% means all eggs are infertile; 0% means all eggs are fertile.

[6] = test system: adult cat fleas (Ctenocephalides felis); experiment: Ctenocephalides felis in-vitro contact test, adult cat flea; settings: application rate 5 μg/cm^2 (=500 g/ha), after 48 hours, read-out: activity (efficacy: fleas dead or moribund)
Procedure: Ctenocephalides felis—In-Vitro Contact Tests Adult Cat Flea
as §1
After the solvent has evaporated, each test tube is filled with 5-10 adult cat fleas (Ctenocephalides felis), closed with a perforated lid and incubated in a lying position at room temperature and relative humidity. After 48 hours efficacy is determined. The fleas are patted on the ground of the tubes and are incubated on a heating plate at 45-50° C. for at most 5 minutes. Immotile or uncoordinated moving fleas, which are not able to escape the heat by climbing upwards, are marked as dead or moribund.
An efficacy of 100% means all fleas are dead or moribund; 0% means no fleas are dead or moribund.

[7] = test system: adult mosquitoes Aedes aegypti strain MONHEIM; experiment: Aedes aegypti test (AEDSAE surface treatment & contact assay); settings: surface concentration 20 mg/m^2, exposure 30 minutes, 24 hours after contact, read-out: efficacy (mortality)
Procedure: Aedes aegypti Test (AEDSAE Surface Treatment & Contact Assay)
Solvent: Aceton+2000 ppm rapeseed oil methyl ester (RME)
In order to produce a sufficient, active ingredient containing solution it is necessary to solve the test compound in the solvent-mix (acetone at 2 mg/ml/RME 2000 ppm). This solution is pipetted onto a glazed tile and after evaporation of the acetone, adult mosquitoes of the species Aedes aegypti strain MONHEIM are placed onto the dried surface. The exposure time is 30 minutes.
Mortality in percent (%) is determined 24 hours after contact of the insects to the treated surface. 100% mortality means that all tested insects are dead, whereas 0% means that no insect died.

[8] = test system: larvae of the southern green stink bug (Nezara viridula); experiment: Nezara viridula spray test; settings: 96 h, after 4 days, barley plants; for mortality at 100 g/ha: application rate 100 g/ha; for mortality at 500 g/ha: application rate 500 g/ha, read-out: activity (mortality)
Procedure: Nezara viridula—Spray Test
To produce a suitable preparation of active compound, 1 part by weight of active compound is mixed with the stated amount of solvent, and the concentrate is diluted with water, containing an emulsifier concentration of 1000 ppm, to the desired concentration. Further test concentrations are prepared by dilution with emulsifier containing water.
Barley plants (Hordeum vulgare) are sprayed with a test solution containing the desired concentration of the active ingredient and are infested with larvae of the southern green stink bug (Nezara viridula).
After 4 days mortality in % is determined. 100% means all the stink bugs have been killed; 0% means none of the stink bugs have been killed.

[9] = test system: green peach aphid (Myzus persicae); experiment: Myzus persicae spray test; settings: foliar, 120 h, after 5 days, Chinese cabbage leaf disks; for mortality at 100 g/ha: application rate 100 g/ha, read-out: activity (mortality); for mortality at 500 g/ha: application rate 500 g/ha
Procedure: Myzus persicae—Spray Test
To produce a suitable preparation of active compound, 1 part by weight of active compound is mixed with the stated amount of solvents and is diluted with water, containing an emulsifier concentration of 1000 ppm, to the desired concentration. Further test concentrations are prepared by dilution with emulsifier containing water.
Chinese cabbage (Brassica pekinensis) leaf disks infected with all instars of the green peach aphid (Myzus persicae), are sprayed with a preparation of the active ingredient of the desired concentration.
After 5 days mortality in % is determined. 100% means all aphids have been killed and 0% means none of the aphids have been killed.

[10] = test system: larvae of the banded cucumber beetle (Diabrotica balteata); experiment: Diabrotica balteata spray test; settings: 168 h, application rate 100 g/ha (=32 μg/well), after 7 days, wheat seeds, read-out: activity (efficacy: seedlings grown)
How it was run: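 Efficacy (%) read 7 days after infesting treated seedlings with 10-20 banded cucumber beetle larvae, 100% meaning growth as in uninfected untreated control and 0% no growth. Test solutions in water containing 1000 ppm emulsifier were sprayed onto wheat seeds germinated for 1 day on agar.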

## C[C@H](NC(=O)c1cc(C(F)(F)F)cc(C(F)(F)F)c1)c1ncnn1-c1ccc(C(=O)N2CC3(COC3)C2)cn1 [Example I-12]
[1]
  mortality at 4 ppm: 100%
[2]
  pest or weed control at 1 µg/cm2, 100 g/ha: 100%
  pest or weed control at 5 µg/cm2, 500 g/ha: 100%
[3]
  pest or weed control at 5 µg/cm2, 500 g/ha: 100%
[4]
  mortality at 100 g/ha: 100%
[5]
  pest or weed control at 0.004 mg: 100%
[6]
  pest or weed control at 5 µg/cm2: 90%
[7]
  mortality at 20 mg/m2: 80 to 100%

## C[C@H](NC(=O)c1cc(C(F)(F)F)cc(C(F)(F)F)c1)c1ncnn1-c1ccc(C(=O)N2CCOC(C)(C)C2)cn1 [Example I-14, N-[(1S)-1-(1-{5-[(2,2-dimethylmorpholin-4-yl)carbonyl]pyridin-2-yl}-1H-1,2,4-triazol-5-yl)ethyl]-3,5-bis(trifluoromethyl)benzamide]
[1]
  mortality at 4 ppm: 100%
[2]
  pest or weed control at 1 µg/cm2, 100 g/ha: 100%
  pest or weed control at 5 µg/cm2, 500 g/ha: 100%
[3]
  pest or weed control at 5 µg/cm2, 500 g/ha: 100%
[8]
  mortality at 100 g/ha: 100%
[4]
  mortality at 100 g/ha: 83%
[5]
  pest or weed control at 0.004 mg: 100%
[9]
  mortality at 100 g/ha: 90%
[6]
  pest or weed control at 5 µg/cm2: 100%
[10]
  pest or weed control at 32 µg/disc, 100 g/ha: 100%

## CON(C)C(=O)c1ccc(-n2ncnc2[C@H](C)NC(=O)c2cc(C(F)(F)F)cc(C(F)(F)F)c2)nc1 [Example I-48]
[1]
  mortality at 4 ppm: 100%
[2]
  pest or weed control at 1 µg/cm2, 100 g/ha: 100%
  pest or weed control at 5 µg/cm2, 500 g/ha: 100%
[4]
  mortality at 100 g/ha: 100%
[10]
  pest or weed control at 32 µg/disc, 100 g/ha: 100%
[7]
  mortality at 20 mg/m2: 80 to 100%

## CON(C)C(=O)c1ccc(-n2nc(C)nc2[C@H](C)NC(=O)c2cc(C(F)(F)F)cc(C(F)(F)F)c2)nc1 [Example I-49]
[1]
  mortality at 4 ppm: 100%
[2]
  pest or weed control at 1 µg/cm2, 100 g/ha: 100%
  pest or weed control at 5 µg/cm2, 500 g/ha: 100%
[4]
  mortality at 100 g/ha: 100%
[9]
  mortality at 100 g/ha: 90%
[10]
  pest or weed control at 32 µg/disc, 100 g/ha: 100%
[7]
  mortality at 20 mg/m2: 80 to 100%

## C[C@H](NC(=O)c1cc(C(F)(F)F)cc(C(F)(F)F)c1)c1ncnn1-c1ccc(C(=O)NC2CCOC2)cn1 (stereo partly shown) [Example I-61]
[1]
  mortality at 4 ppm: 100%
[2]
  pest or weed control at 1 µg/cm2, 100 g/ha: 90%
  pest or weed control at 5 µg/cm2, 500 g/ha: 90%
[8]
  mortality at 500 g/ha: 100%
[4]
  mortality at 100 g/ha: 100%
[9]
  mortality at 500 g/ha: 90%
[7]
  mortality at 20 mg/m2: 80 to 100%

## C[C@H](NC(=O)c1cc(C(F)(F)F)cc(C(F)(F)F)c1)c1ncnn1-c1ccc(C(=O)NC2CS(=O)(=O)C2)cn1 [Example I-63]
[1]
  mortality at 4 ppm: 100%
[2]
  pest or weed control at 1 µg/cm2, 100 g/ha: 90%
  pest or weed control at 5 µg/cm2, 500 g/ha: 90%
[9]
  mortality at 100 g/ha: 90%
  mortality at 500 g/ha: 90%
[6]
  pest or weed control at 5 µg/cm2: 100%
[10]
  pest or weed control at 32 µg/disc, 100 g/ha: 100%
[7]
  mortality at 20 mg/m2: 80 to 100%

## Cc1nc([C@H](C)NC(=O)c2cc(C(F)(F)F)cc(C(F)(F)F)c2)n(-c2ccc(C(=O)N3CCOC[C@@H]3C)cn2)n1 [Example I-68]
[2]
  pest or weed control at 1 µg/cm2, 100 g/ha: 100%
  pest or weed control at 5 µg/cm2, 500 g/ha: 100%
[4]
  mortality at 100 g/ha: 100%
[6]
  pest or weed control at 5 µg/cm2: 100%
[10]
  pest or weed control at 32 µg/disc, 100 g/ha: 100%
[7]
  mortality at 20 mg/m2: 80 to 100%

## C[C@H](NC(=O)c1cc(C(F)(F)F)cc(C(F)(F)F)c1)c1ncnn1-c1ccc(C(=O)N2CCOCC2c2ncno2)cn1 (stereo partly shown) [Example I-98]
[1]
  mortality at 4 ppm: 100%
[2]
  pest or weed control at 1 µg/cm2, 100 g/ha: 100%
  pest or weed control at 5 µg/cm2, 500 g/ha: 100%
[3]
  pest or weed control at 5 µg/cm2, 500 g/ha: 100%
[8]
  mortality at 100 g/ha: 90%
[6]
  pest or weed control at 5 µg/cm2: 90%
[10]
  pest or weed control at 32 µg/disc, 100 g/ha: 100%

## C[C@@H]1CN(C(=O)c2cnc(-n3ncnc3[C@H](C)NC(=O)c3cc(OC(F)(F)F)cc(C4CC4)c3)cn2)C[C@H](C)O1 [Example I-141]
[8]
  mortality at 100 g/ha: 90%
  mortality at 500 g/ha: 100%
[4]
  mortality at 100 g/ha: 100%
[9]
  mortality at 100 g/ha: 90%

## C[C@@H]1CN(C(=O)c2cnc(-n3ncnc3[C@H](C)NC(=O)c3cc(C(F)(F)F)cc(C(F)(F)F)c3)cn2)C[C@H](C)O1 [Example I-143]
[8]
  mortality at 500 g/ha: 100%
[4]
  mortality at 100 g/ha: 100%
[9]
  mortality at 100 g/ha: 90%
[10]
  pest or weed control at 32 µg/disc, 100 g/ha: 100%
